Series [1] deals with T1, argininosuccinate synthase (AsS) (Mus musculus, UniProt P16460).
T1 construct: Cytosolic and membrane fractions of the renal extract (100 mg/ml total protein) were applied to separate columns; from tissue; host or cells: Balb-c mouse kidney, cytosolic and membrane fractions
T1 sequence (P16460 1-412): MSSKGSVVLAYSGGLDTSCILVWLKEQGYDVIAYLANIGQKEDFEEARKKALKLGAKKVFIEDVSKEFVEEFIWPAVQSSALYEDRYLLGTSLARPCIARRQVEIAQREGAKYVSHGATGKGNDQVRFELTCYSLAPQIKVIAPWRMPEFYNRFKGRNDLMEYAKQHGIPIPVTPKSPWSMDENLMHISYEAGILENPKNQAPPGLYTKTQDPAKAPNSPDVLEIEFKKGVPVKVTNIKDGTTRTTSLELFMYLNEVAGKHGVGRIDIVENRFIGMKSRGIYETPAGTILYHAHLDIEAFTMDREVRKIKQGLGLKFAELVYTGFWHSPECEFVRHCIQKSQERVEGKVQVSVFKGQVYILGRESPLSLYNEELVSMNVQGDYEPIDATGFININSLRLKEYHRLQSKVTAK
Kind of series: Potentiation of argininosuccinate synthase activity (phosphate generated from ATP). It is filed as biochemical. The protocol:
Activation of the AsS enzyme of Example 3 by peptide SEQ ID NO 8 was quantified in vitro according to Hao et al. [Hao G., Xie L., Gross S. S. Argininosuccinate synthetase is reversibly inactivated by S-nitrosylation in vitro and in vivo. J. Biol. Chem., 279:36192-36200 (2004)]. This method is based on measuring the quantity of phosphate generated from ATP, when pyrophosphatase is added to the reaction medium. Since the activity of the pyrophosphatase relates directly to the enzymatic activity of the AsS, the quantity of generated pyrophosphate is a direct measurement of the AsS activity.
The AsS enzyme (1 μg) was added to the reaction mixture containing 20 mM Tris-HCl, pH 7.8, 2 mM ATP, 2 mM citrulline, 2 mM aspartate, 6 mM MgCl2, 20 mM KCl, and 0.2 units of pyrophosphatase in a final volume of 200 μL in 96 well microplates. Increasing quantities of the SEQ ID NO 8 peptide (0.5, 1 to 8 μM) were added, and samples were incubated at 37° C. for 60 minutes. The reaction was interrupted by the addition of 200 μL of ammonium molybdate buffer (10 mM ascorbic acid, 2.5 mM ammonium molybdate, 2% sulphuric acid). Resulting phosphate was determined in the samples by spectrophotometry (absorbance at 650 nm), using a standard curve obtained with inorganic phosphate.
The production rate of phosphate (enzymatic activity of the AsS) was activated up to approximately 2.5 fold upon addition of 2 μM peptide SEQ ID NO 8. […] Accessibility of endothelial and inducible nitric oxide synthase to the intracellular citrulline-arginine regeneration pathway. Biochem. Pharmacol. 69: 97-104, 2005].

A further series concerns normotensive Wistar rats. It counts as in vivo, rat. Particulars: 10 μmoles/Kg of body weight i.v.; 6 hours. The procedure:
In vivo studies on the effect of peptides of the present invention were performed on adult male spontaneously hypertensive rats, and normotensive Wistar rats (Rattus novergicus) weighing 250 to 350 g. Animals had free access to chow (Nuvilab) and water, and were submitted to a light-dark cycle of 12 hours each. Procedures involving animals and their care were conducted according to Giles [Giles A. R. Guidelines for the use of animals in biomedical research. Thromb. Haemost. 58: 1078-1084, 1987].
Before drug administration, cardiovascular parameters of the rats were monitored for 40 minutes. Intravenous (I.V.) injection of Ang I (100 ng) was performed in bolus in a total volume of 0.1 mL. 60 minutes after the start of register, 71 nmoles/Kg body weight of peptides SEQ ID NO 8 or SEQ ID NO 4, or captopril were administered I.V. in a total volume of 0.5 mL of 0.9% NaCl solution. […] Arterial blood pressure and heart frequency were continuously monitored for 360 minutes.
Adult male Wistar normotensive rats, weighing between 250 and 350 g, were used in the experimental evaluation of the hypotensive effect of SEQ ID NO 8, as described in Example 12. An i.v. dose of 10 μmoles/Kg of body weight of peptide SEQ ID NO 8 was injected, and arterial blood pressure was monitored for 6 hours (results not shown).

Series [2] is described as follows: Determination of Z-pro metabolites in mice urine. It is filed as in vivo, mouse. Particulars: mice; 0.91 mg/Kg intraperitoneally; urine collected after 24 hours; mass spectrometry; 0.91 mg/kg. The protocol:
In vivo hydrolysis of peptides SEQ ID NO 1, SEQ ID NO 4, SEQ ID NO 5, SEQ ID NO 8, and SEQ ID NO 15 was investigated in Swiss male mice weighing approximately 22-25 g, which had free access to food and water, and were kept under a light-dark cycle of 12 hour periods.
Groups of 10 mice were treated intraperitoneally with 0.91 mg/Kg of each proline rich oligopeptide per animal, diluted in 200 μl saline. Treated and control animals (not treated) were kept in metabolic cages, and their urine was collected after 24 hours. The urine was pre-purified in a reverse phase Sep-Pak C18 micro column (Waters), which had been previously equilibrated with solvent A (H2O/0.1% TFA). Samples were eluted with 60% solvent B (90% acetonitrile/10% solvent A), lyophilized, and resuspended in 1 ml deionized water to be centrifuged at 14.000 rpm for 5 minutes. The supernatant (500 μl) was fractionated in an analytic HPLC system. The gradient was 5-65% solvent B for 30 minutes, using a flow rate of 1 ml/min and monitoring at 214 nm. Fractions were lyophilized and ressuspended in acetonitrile/H2O (1:1), containing 0.2% formic acid, and were analyzed by mass spectrometry (Q-TOF-Pro). Urine fractions from control and treated animals were compared to determine the presence of metabolites originated from the peptides being tested.

“Also recorded” adds a separate entry of the source.

With <ENWPHPQIPP [SEQ ID NO 8], in series [1] (2 μM peptide, AsS 1-8 μg), the “activation of the production rate of phosphate (enzymatic activity of the AsS)” value is “approximately 2.5 fold”. The “activation of AsS” value in series [1] (maximum activation) is listed as 70-80%. Also, the “hypotensive effect in normotensive rats” value with normotensive Wistar rats is on record as “no significant hypotensive effect”. Further, the “Metabolites in the urine” value in series [2] is “<ENWPHPQIPP; also recorded: <ENWPHPQIP”.

These data come from US20100035822A1, “PROLINE-RICH PEPTIDES, PHARMACEUTICAL COMPOSITION, USE OF ONE OR MORE PEPTIDES AND METHOD OF TREATMENT” (priority 2006, published 2010).
